Source: patent publication US11857550B2, “Benzathine analogs” (University of Pittsburgh—Of the Commonwealth System of …, priority 2012, dated 2024)

Tests used:
C57BL6 mice [1] = test: LPS induced (endotoxin) septic shock model; format: in vivo; settings: IP, 10 min before 100 ug LPS IP; blood at 90 min
Description: FIG. 11. BC-1215 inhibits cytokine release from in an endotoxin septic shock model. BC-1215 was solubilized in water using acetic acid in a 1:2 molar ratio; the stock solution of BC-1215 was 5 mg/ml. C57BL6 mice were deeply anesthetized with ketamine (80-100 mg/kg intraperitoneally (i.p.) and xylazine (10 mg/kg i.p.). 500 ug, 100 ug, 20 ug, 4 ug and 0.8 ug of BC-1215 was administered to mice through an intraperitoneal (IP) injection. 10 min later, mice were given 100 ug of LPS (E. coli) through an IP injection. 90 min later, mice were euthanized; blood was collected and tested for IL1-β, IL-6 and TNFα assays. (n=3/mice group at each dose)
Compound BC-1215 was first solubilized in water using acetic acid in a 1:2 molar ratio; the stock solution of BC-1215 was 5 mg/ml. 500 ug, 100 ug, 20 ug, 4 ug and 0.8 ug of BC-1215 was administered to mice though an intraperitoneal (IP) injection. 10 min later, mice were given 100 ug of LPS (E. coli) through an IP injection. 90 min later, mice were euthanized; blood was collected and tested for IL1-β, IL-6 and TNFα cytokine assays.

PBMC cells = test: LPS-treated PBMC human cytokine array; format: cell-based; settings: 10 ug/ml compound, 2 ug/ml LPS, 16 hrs
Description: FIG. 9. BC-1215 inhibits a broad spectrum of Th1 panel cytokines. PBMC cells (0.6 ml at 1.5*10^6/ml) were treated with 2 ug/ml LPS for 16 his with BC-1215 at 10 ug/ml. Cytokine release was monitored by the human cytokine array (R&D systems).
PBMC cells were treated with 2 ug/ml LPS for 16 hrs along with BC-1215 at 10 ug/ml. Cytokine release was monitored by a human cytokine array (R&D systems). […] These cytokines are tightly linked to the pathogenesis of many pro-inflammatory diseases, some of which have led to the use of blocking cytokine antibodies to reduce disease severity. For example: GM-CSF drives inflammation in rheumatoid arthritis (RA), and currently, GM-CSF blocking antibodies (MOR103) have been tested in Phase 1b/2a trial in patients suffering from RA.

COX-2 = target: T1, COX-2 (Mus musculus, UniProt Q05769); test: COX-2 activity in MLE cells; format: cell-based, murine; settings: 10 ug/ml, 24 h; positive control DuP-697
T1 construct: MLE cells were treated with BC-1215 (10 ug/ml) for 24 h before assaying for COX-2 activity (Cayman); endogenous in cells; host or cells: MLE (murine lung epithelial) cells
T1 sequence (Q05769 18-604): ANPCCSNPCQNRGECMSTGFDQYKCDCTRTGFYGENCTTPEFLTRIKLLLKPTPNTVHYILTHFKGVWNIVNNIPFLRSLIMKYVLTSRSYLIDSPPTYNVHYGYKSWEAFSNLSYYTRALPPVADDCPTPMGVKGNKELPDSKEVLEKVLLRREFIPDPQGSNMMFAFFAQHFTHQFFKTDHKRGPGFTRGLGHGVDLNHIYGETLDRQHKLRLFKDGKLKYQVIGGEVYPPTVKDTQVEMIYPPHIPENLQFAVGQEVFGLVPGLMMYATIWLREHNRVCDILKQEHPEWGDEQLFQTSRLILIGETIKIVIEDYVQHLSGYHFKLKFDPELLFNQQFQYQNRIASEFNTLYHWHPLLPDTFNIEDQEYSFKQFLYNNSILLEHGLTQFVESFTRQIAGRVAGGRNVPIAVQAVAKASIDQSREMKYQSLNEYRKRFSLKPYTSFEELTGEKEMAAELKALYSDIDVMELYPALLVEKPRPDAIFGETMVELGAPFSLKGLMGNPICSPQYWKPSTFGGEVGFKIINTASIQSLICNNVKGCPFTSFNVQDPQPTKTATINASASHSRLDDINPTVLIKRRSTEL

human PBMC cells = test: LPS-induced IL1β and TNFα cytokine release from PBMC cells (ELISA); format: cell-based; settings: LPS-exposed human PBMC
Description: FIGS. 20A-20J is a table depicting benzathine compounds, and assay results. PBMC cells (0.6 ml at 1.5*10^6/ml) were treated with 2 ug/ml LPS for 16 hrs along with each compound at different concentrations. IL1β and TNFα cytokine release were monitored by ELISA to calculate the IC50. U937 monocyte (0.6 ml at 1.5*10^6/ml) were treated with each compound at different concentrations for 16 h. Cells were then stained with Trypan blue to differentiate dead cells, and calculate the LD50. Therapeutic index (TI)=LD50/IC50. Compounds marked in red are high value targets (low IC50, high LD50) and require further testing in vivo.
Briefly, compounds were added to human PBMC cells at different concentrations that were exposed to […] and cytokine secretion was monitored by ELISA to determine the IC50. Compounds were also added to U937 monocytes at different concentrations, and cells were stained with trypan blue to determine the LD50. […] Several functional studies were undertaken to assess anti-inflammatory effects focusing on BC-1215.

C57BL6 mice [2] = test: TPA induced ear edema; format: in vivo; settings: topical, 8, 40, 200 ug/ear, 18 h after TPA
Description: FIGS. 15A-15C. […] FIG. 15A-15C. C57BL6 mice were deeply anesthetized with ketamine (80-100 mg/kg i.p.) and xylazine (10 mg/kg i.p.). 20 μl of ethanol solution of BC-1215 was applied to ears at 8, 40, 200 ug/ear 30 min after TPA administration (2 μg/ear). Comparisons included equal volumes of ethanol (vehicle control). 18 h after TPA administration, mice were euthanized; the thickness of the ear was measured using a micrometer (FIG. 15B). Ear punch biopsies were also taken immediately, weighed and graphed (FIG. 15C).
FIGS. 23A-23D. […] Different dose of BC-1261 was applied to ears of mice at various doses 30 min after TPA administration (2 μg/ear). A. Gross comparisons were made with equal volumes of ethanol as a vehicle control (CON). 18 h after TPA administration, mice were euthanized and the thickness of the ear was measured using a micrometer (B). Autopsy sample were also taken to measure MPO activity (C) and calculate ear edema (D). The data represent n=6 mice/group, *P<0.05 versus TPA.
Topical application of BC-1215 as an anti-inflammatory agent was tested in a model of 12-O-tetradecanoylphorbol-13-acetate (TPA) induced ear edema (Bralley et. al., J Inflamm (LOnd), 2008. 5:p.1). Briefly, 20 μl of an ethanol solution of BC-1215 was applied to ears of mice at 8, 40, and 200 ug/ear for 30 min after TPA administration (2 μg/ear). Comparisons included equal volumes of ethanol (vehicle control). 18 h after TPA administration, mice were euthanized; the thickness of the ear was measured using a micrometer. Ear punch biopsies were also taken immediately, weighed, and graphed.

c1ccc(-c2ccc(CNCCNCc3ccc(-c4ccccn4)cc3)cc2)nc1 [BC-1215]
IC50 IL-1β (C57BL6 mice [1]): 1 mg/kg
IC50 IL-6 (C57BL6 mice [1]): 2.5 mg/kg
IC50 TNFα (C57BL6 mice [1]): 1.2 mg/kg
TH1 panel cytokine release (PBMC cells): significantly suppress the majority of the TH1 panel cytokines
COX-2 activity (COX-2): did not alter COX-2 activity
IC50 (cytokine secretion) (human PBMC cells): high
ear edema (C57BL6 mice [2]): significantly resolve edema
ear thickness (C57BL6 mice [2]): significantly reduced
ear weight (punch biopsies) (C57BL6 mice [2]): significantly reduced
